Experimental data: patent publication US9890369B2 (priority 2013, dated 2018)
Several values for one entry are separate records, joined by “and”; a condition that tells them apart may be missing. Equal values may be shown once.

What was measured:
[1] = test system: CHO K1 cells (WTP4); format: cell-based, Chinese hamster
[2] = test system: HeLa cells; format: cell-based, human
[3] = test system: CHO K1 cells; format: cell-based, Chinese hamster

CN[C@@H]1C[C@H]2O[C@@](C)([C@@H]1OC)n1c3ccccc3c3c4c(c5c6ccccc6n2c5c31)C(=O)NC4 [Staurosporine, staurosporine]
% G0/G1 [1]: 42.9% and 41.8%
% G2/M [1]: 13.6% and 12.2%
apoptosis induction by PARP cleavage [2]: apoptosis induction
apoptosis induction by TUNEL staining (in words) [3]: complete conversion of cells
